Literature values, collected in patent US11833140B2, “Compositions and methods for treating, ameliorating and preventing H. pylori infections” (priority 2017, dated 2023).

How the values were obtained:
H. pylori (HP) = settings: first line therapy, with amoxicillin and clarithromycin
H^+/K^+—ATPAs = molecular target: T1, H^+/K^+—ATPAs (Homo sapiens, UniProt P20648); settings: within 4 hours of its first administration in humans
T1 construct: increase intragastric pH to at least over pH 4.0 within 4 hours of its first administration in humans; host or cells: human stomach in vivo
T1 sequence (P20648 whole entry): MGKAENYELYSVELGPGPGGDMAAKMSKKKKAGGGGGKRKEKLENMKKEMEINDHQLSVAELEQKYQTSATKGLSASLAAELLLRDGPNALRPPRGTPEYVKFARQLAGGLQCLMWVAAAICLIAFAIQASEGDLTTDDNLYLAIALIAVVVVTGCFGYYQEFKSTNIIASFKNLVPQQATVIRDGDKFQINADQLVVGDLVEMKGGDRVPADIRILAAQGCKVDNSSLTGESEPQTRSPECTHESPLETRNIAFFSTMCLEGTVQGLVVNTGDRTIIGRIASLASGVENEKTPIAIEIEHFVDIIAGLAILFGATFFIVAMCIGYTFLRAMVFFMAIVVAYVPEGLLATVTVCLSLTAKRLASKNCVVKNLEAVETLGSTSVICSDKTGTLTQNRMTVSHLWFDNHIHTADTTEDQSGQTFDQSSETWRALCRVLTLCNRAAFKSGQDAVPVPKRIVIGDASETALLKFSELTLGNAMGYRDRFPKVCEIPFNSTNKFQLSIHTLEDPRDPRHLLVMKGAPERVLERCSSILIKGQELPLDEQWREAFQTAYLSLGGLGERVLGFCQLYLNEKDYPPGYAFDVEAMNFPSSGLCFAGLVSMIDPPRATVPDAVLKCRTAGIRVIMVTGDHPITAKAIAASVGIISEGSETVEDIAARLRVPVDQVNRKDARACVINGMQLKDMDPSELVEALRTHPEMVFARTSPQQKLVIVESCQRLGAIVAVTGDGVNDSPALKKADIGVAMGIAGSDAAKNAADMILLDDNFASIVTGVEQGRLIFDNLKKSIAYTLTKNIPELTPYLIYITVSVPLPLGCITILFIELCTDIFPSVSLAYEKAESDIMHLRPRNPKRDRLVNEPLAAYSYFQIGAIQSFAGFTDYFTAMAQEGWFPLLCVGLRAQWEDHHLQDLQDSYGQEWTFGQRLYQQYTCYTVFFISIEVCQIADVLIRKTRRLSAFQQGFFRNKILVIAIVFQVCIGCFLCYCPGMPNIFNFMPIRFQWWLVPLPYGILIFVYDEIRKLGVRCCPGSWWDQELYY
T1 sequence (P51164 whole entry partner): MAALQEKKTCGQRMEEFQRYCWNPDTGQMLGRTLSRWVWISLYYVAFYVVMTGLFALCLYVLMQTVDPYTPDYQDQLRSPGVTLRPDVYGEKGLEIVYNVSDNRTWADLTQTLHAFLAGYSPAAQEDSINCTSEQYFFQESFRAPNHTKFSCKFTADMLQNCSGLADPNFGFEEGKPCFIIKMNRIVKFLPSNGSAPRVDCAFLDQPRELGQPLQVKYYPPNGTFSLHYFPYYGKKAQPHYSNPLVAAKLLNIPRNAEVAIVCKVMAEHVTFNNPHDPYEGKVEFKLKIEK

CYP3A4 = CYP3A4 (Homo sapiens, UniProt P08684)
Chain of CYP3A4 (P08684 whole entry): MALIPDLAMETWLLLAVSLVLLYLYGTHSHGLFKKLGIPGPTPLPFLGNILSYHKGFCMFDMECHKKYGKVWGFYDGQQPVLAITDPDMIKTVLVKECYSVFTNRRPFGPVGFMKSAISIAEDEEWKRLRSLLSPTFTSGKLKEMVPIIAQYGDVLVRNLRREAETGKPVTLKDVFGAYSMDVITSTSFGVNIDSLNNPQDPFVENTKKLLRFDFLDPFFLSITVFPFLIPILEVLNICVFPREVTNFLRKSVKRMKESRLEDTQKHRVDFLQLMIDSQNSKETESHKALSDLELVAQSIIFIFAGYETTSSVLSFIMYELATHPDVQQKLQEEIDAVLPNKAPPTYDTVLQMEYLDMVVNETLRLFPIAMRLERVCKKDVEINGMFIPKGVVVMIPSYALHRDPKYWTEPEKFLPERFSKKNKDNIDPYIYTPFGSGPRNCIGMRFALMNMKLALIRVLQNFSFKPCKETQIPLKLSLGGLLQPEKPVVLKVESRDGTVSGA

[1] = after a single 20 mg ingestion
[2] = compared with conventional PPI's

Row | intragastric pH (H^+/K^+—ATPAs) | metabolised by (CYP3A4) | plasma half-life [1] | stability at neutral pH [2] | metabolised through the hepatic CYP2C19 haplotypes (CYP2C19) | SMILES | H. pylori (HP) eradication rate (H. pylori (HP))
1 | – | – | – | – | – | Cc1c(OCC(F)(F)F)ccnc1C[S+]([O-])c1nc2ccccc2[nH]1 (stereo not drawn) [lansoprazole] | 76%
2 | > 4.0 pH | by the CYP3A4 system | 7 h | more stable | not metabolised | CNCc1cc(-c2ccccc2F)n(S(=O)(=O)c2cccnc2)c1.O=C(O)/C=C/C(=O)O [vonoprazan, 1-(5-(2-fluorophenyl)-1-(pyridin-3-ylsulfonyl)-1H-pyrrol-3-yl)-N-methylmethanamine fumarate] | –
